# Reference: US20200181117A1, “SUBSTITUTED 3-HETEROARYLOXY-1H-PYRAZOLES AND SALTS THEREOF AND THEIR USE AS HERBICIDAL ACTIVE SUBSTANCES” (BAYER CROPSCIENCE AKTIENGESELLSCHAFT, priority 2017, published 2020)
# How the values were obtained:
# Assay type in all cases: in vivo
# Amaranthus retroflexus [1] = assay: Post-emergence herbicidal action; details: 1280 g/ha, rated visually after about 3 weeks vs untreated controls
# Method in brief: (§1)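 Greenhouse post-emergence spray at one-leaf stage, 1280 g/ha, 600 l/ha water with 0.5% additive; efficacy rated visually after roughly 3 weeks, 0% meaning like controls and 100% meaning dead plants.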
# Stellaria media [2] = assay: Post-emergence herbicidal action; details: 1280 g/ha, rated visually after about 3 weeks vs untreated controls
# Method in brief: as §1
# Setaria viridis [3] = assay: Post-emergence herbicidal action; details: 1280 g/ha, rated visually after about 3 weeks vs untreated controls
# Method in brief: as §1
# Abutilon theophrasti [4] = assay: Post-emergence herbicidal action; details: 1280 g/ha, rated visually after about 3 weeks vs untreated controls
# Method in brief: as §1
# Echinochloa crus-galli [5] = assay: Post-emergence herbicidal action; details: 1280 g/ha, rated visually after about 3 weeks vs untreated controls
# Method in brief: as §1
# Avena fatua [6] = assay: Post-emergence herbicidal action; details: 1280 g/ha, rated visually after about 3 weeks vs untreated controls
# Method in brief: as §1
# Viola tricolor [7] = assay: Post-emergence herbicidal action; details: 1280 g/ha, rated visually after about 3 weeks vs untreated controls
# Method in brief: as §1
# Alopecurus myosuroides [8] = assay: Post-emergence herbicidal action; details: 1280 g/ha, rated visually after about 3 weeks vs untreated controls
# Method in brief: as §1
# Lolium rigidum [9] = assay: Post-emergence herbicidal action; details: 1280 g/ha, rated visually after about 3 weeks vs untreated controls
# Method in brief: as §1
# Polygonum convolvulus [10] = assay: Post-emergence herbicidal action; details: 1280 g/ha, rated visually after about 3 weeks vs untreated controls
# Method in brief: as §1
# Amaranthus retroflexus [11] = assay: Pre-emergence herbicidal action; details: 1280 g/ha, scored visually after about 3 weeks vs untreated controls
# Method in brief: (§2)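 Greenhouse pots with seeds under a soil layer were treated on the soil surface with compound at 1280 g/ha, formulated as WP or EC plus 0.5% additive. About 3 weeks later, visual % effect versus untreated controls was recorded.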
# Matricaria inodora = assay: Pre-emergence herbicidal action; details: 1280 g/ha, scored visually after about 3 weeks vs untreated controls
# Method in brief: as §2
# Stellaria media [12] = assay: Pre-emergence herbicidal action; details: 1280 g/ha, scored visually after about 3 weeks vs untreated controls
# Method in brief: as §2
# Veronica persica [13] = assay: Pre-emergence herbicidal action; details: 1280 g/ha, scored visually after about 3 weeks vs untreated controls
# Method in brief: as §2
# Setaria viridis [14] = assay: Pre-emergence herbicidal action; details: 1280 g/ha, scored visually after about 3 weeks vs untreated controls
# Method in brief: as §2
# Abutilon theophrasti [15] = assay: Pre-emergence herbicidal action; details: 1280 g/ha, scored visually after about 3 weeks vs untreated controls
# Method in brief: as §2
# Echinochloa crus-galli [16] = assay: Pre-emergence herbicidal action; details: 1280 g/ha, scored visually after about 3 weeks vs untreated controls
# Method in brief: as §2
# Avena fatua [17] = assay: Pre-emergence herbicidal action; details: 1280 g/ha, scored visually after about 3 weeks vs untreated controls
# Method in brief: as §2
# Pharbitis purpurea [18] = assay: Pre-emergence herbicidal action; details: 1280 g/ha, scored visually after about 3 weeks vs untreated controls
# Method in brief: as §2
# Viola tricolor [19] = assay: Pre-emergence herbicidal action; details: 1280 g/ha, scored visually after about 3 weeks vs untreated controls
# Method in brief: as §2
# Alopecurus myosuroides [20] = assay: Pre-emergence herbicidal action; details: 1280 g/ha, scored visually after about 3 weeks vs untreated controls
# Method in brief: as §2
# Hordeum murinum [21] = assay: Pre-emergence herbicidal action; details: 1280 g/ha, scored visually after about 3 weeks vs untreated controls
# Method in brief: as §2
# Lolium rigidum [22] = assay: Pre-emergence herbicidal action; details: 1280 g/ha, scored visually after about 3 weeks vs untreated controls
# Method in brief: as §2
# Hordeum murinum [23] = assay: Post-emergence herbicidal action; details: 1280 g/ha, rated visually after about 3 weeks vs untreated controls
# Method in brief: as §1
# Polygonum convolvulus [24] = assay: Pre-emergence herbicidal action; details: 1280 g/ha, scored visually after about 3 weeks vs untreated controls
# Method in brief: as §2
# Veronica persica [25] = assay: Post-emergence herbicidal action; details: 1280 g/ha, rated visually after about 3 weeks vs untreated controls
# Method in brief: as §1
# Pharbitis purpurea [26] = assay: Post-emergence herbicidal action; details: 1280 g/ha, rated visually after about 3 weeks vs untreated controls
# Method in brief: as §1
Structure (SMILES),herbicidal activity on Amaranthus retroflexus (Amaranthus retroflexus [1]),herbicidal activity on Stellaria media (Stellaria media [2]),herbicidal activity on Setaria viridis (Setaria viridis [3]),herbicidal activity on Abutilon theophrasti (Abutilon theophrasti [4]),herbicidal activity on Echinochloa crus-galli (Echinochloa crus-galli [5]),herbicidal activity on Viola tricolor (Viola tricolor [7]),herbicidal activity on Alopecurus myosuroides (Alopecurus myosuroides [8]),herbicidal activity on Polygonum convolvulus (Polygonum convolvulus [10]),herbicidal activity on Amaranthus retroflexus (Amaranthus retroflexus [11]),herbicidal activity on Matricaria inodora (Matricaria inodora),herbicidal activity on Stellaria media (Stellaria media [12]),herbicidal activity on Veronica persica (Veronica persica [13]),herbicidal activity on Setaria viridis (Setaria viridis [14]),herbicidal activity on Abutilon theophrasti (Abutilon theophrasti [15]),herbicidal activity on Echinochloa crus-galli (Echinochloa crus-galli [16]),herbicidal activity on Avena fatua (Avena fatua [17]),herbicidal activity on Viola tricolor (Viola tricolor [19]),herbicidal activity on Alopecurus myosuroides (Alopecurus myosuroides [20]),herbicidal activity on Hordeum murinum (Hordeum murinum [21]),herbicidal activity on Lolium rigidum (Lolium rigidum [22]),also measured
Cc1c(Sc2ccc(F)c(F)c2)c(Oc2ncccn2)nn1C [Example I-036],100%,90%,90%,90%,90%,100%,90%,100%,90%,90%,100%,100%,100%,100%,100%,90%,100%,90%,100%,100%,herbicidal activity on Avena fatua (Avena fatua [6]): 100%; herbicidal activity on Lolium rigidum (Lolium rigidum [9]): 90%; herbicidal activity on Pharbitis purpurea (Pharbitis purpurea [18]): 80%
Cc1c(Sc2cccc(Cl)c2)c(Oc2ncccn2)nn1C [Example I-069],100%,,80%,80%,80%,100%,100%,100%,100%,100%,100%,100%,100%,100%,100%,100%,100%,100%,100%,100%,herbicidal activity on Hordeum murinum (Hordeum murinum [23]): 80%; herbicidal activity on Polygonum convolvulus (Polygonum convolvulus [24]): 100%
Cc1c(Sc2ccccc2)c(Oc2ncc(F)cn2)nn1C [Example I-133],100%,100%,100%,100%,100%,100%,100%,100%,100%,100%,100%,,100%,100%,100%,100%,100%,100%,100%,100%,herbicidal activity on Veronica persica (Veronica persica [25]): 100%; herbicidal activity on Pharbitis purpurea (Pharbitis purpurea [26]): 100%; herbicidal activity on Hordeum murinum (Hordeum murinum [23]): 90%; herbicidal activity on Lolium rigidum (Lolium rigidum [9]): 90%; herbicidal activity on Polygonum convolvulus (Polygonum convolvulus [24]): 100%
Cc1c(Sc2ccc(F)c(F)c2)c(Oc2cnccn2)nn1C [Example I-141],100%,100%,90%,90%,100%,90%,80%,100%,100%,100%,90%,100%,100%,100%,100%,80%,100%,90%,80%,90%,herbicidal activity on Veronica persica (Veronica persica [25]): 100%; herbicidal activity on Avena fatua (Avena fatua [6]): 80%; herbicidal activity on Pharbitis purpurea (Pharbitis purpurea [26]): 80%; herbicidal activity on Polygonum convolvulus (Polygonum convolvulus [24]): 100%
Cc1c(Sc2cccc(F)c2)c(Oc2ncc(F)cn2)nn1C [Example I-158],100%,90%,100%,90%,100%,100%,100%,100%,100%,100%,100%,100%,100%,100%,100%,100%,100%,100%,100%,100%,herbicidal activity on Avena fatua (Avena fatua [6]): 80%; herbicidal activity on Pharbitis purpurea (Pharbitis purpurea [26]): 80%; herbicidal activity on Lolium rigidum (Lolium rigidum [9]): 100%; herbicidal activity on Polygonum convolvulus (Polygonum convolvulus [24]): 100%
